We go through eleven molecules from ChEMBL document CHEMBL1201862, “PubChem BioAssay data set” (2004).

Structures are written as SMILES.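 1) Cells in 96-well plates. 2) Compound, 48 h, 5 concentrations. 3) Linear interpolation between surrounding doses. 4) Unreached endpoint = highest concentration. The concentration for 50% growth inhibition is given as GI50.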 The source made the active and inactive calls. Rule as the data show it: active = GI50 up to about 1.1 µM and inactive = higher.

Holding throughout (assay): inhibition of tumour cell growth, NCI panel, 48 h
Test [1] deals with SN12C.
The subject of test [2] is HCT-15.
In test [3] the test system is 786-0.
Test [4] concerns UACC-62.
Test [5] deals with NCI/ADR-RES.
For test [6], the system named is MDA-MB-435.
The subject of test [7] is OVCAR-5.
The subject of test [8] is NCI-H23.
Test [9] concerns ACHN.
Test [10] concerns SNB-19.
The subject of test [11] is TK-10.
Test [12] concerns NCI-H522.
In test [13] the test system is COLO 205.
For test [14], the system named is HOP-62.
The test system of test [15] is SF-295.
The test system of test [16] is SNB-75.
In test [17] the test system is SK-MEL-2.
Test [18] relates to HL-60.
In test [19] the test system is OVCAR-8.

In the case of `CCOc1ccc2c(c1)C(/C(C(Cl)=C(Cl)Cl)=[N+](/[O-])OC(=O)c1ccccc1)=N2`, the GI50 in test [1] was 78.9 µM (inactive); in test [2] it was 50.2 µM; in test [3] it was 72.4 µM (inactive); in test [4], 77.6 µM (inactive); in test [5] it was 57.3 µM (inactive); in test [6], 29.6 µM (inactive). Moreover, the GI50 in [7] was 76.4 µM (inactive); in test [8], 48.6 µM (inactive); in test [9] it was 73.1 µM (inactive); in test [10], 93.1 µM (inactive); in [11], 99.3 µM (inactive); in test [12], 35.2 µM (inactive). Further, the GI50 in test [13] is 40.1 µM (inactive); in test [14] it was 65.8 µM (inactive); in test [15] it was 49.7 µM (inactive); in [16], 56.8 µM (inactive); in test [17] it was 85.9 µM (inactive); in test [18], 33.7 µM (inactive). For the same molecule, the GI50 in test [19] was 72.8 µM (inactive).

As for `Cc1ccc(S(=O)(=O)Nn2c(S)c(C#N)c(-c3ccc(Cl)cc3)c(C#N)c2=O)cc1`, the GI50 in test [1] was 25.7 µM (inactive); in [2], 25.9 µM; in [3] it was 32.6 µM (inactive); in test [4], 27.7 µM (inactive); in [5], 27.5 µM (inactive); in test [6], 27.1 µM (inactive). For the same molecule, the GI50 in [7] was 50.1 µM (inactive); in test [8], 30 µM (inactive); in [9] it was 31.6 µM (inactive); in test [10], 35.4 µM (inactive); in [11], 25.6 µM (inactive); in test [12], 16.6 µM (inactive). Also, the GI50 in test [13] is 35.6 µM (inactive); in test [15], 32.9 µM (inactive); in [16], 33.8 µM (inactive); in test [17] it was 56.8 µM (inactive); in test [18], 23 µM (inactive); in test [19], 22 µM (inactive).

For the molecule `Cc1ccc(/N=N/C(=N/NC(=O)c2ccccc2)c2ccc(N(CCC#N)CCC#N)cc2C)cc1`, the GI50 in test [1] is 40.8 µM (inactive); in [2] it was 25.3 µM; in [3] it was 33.3 µM (inactive); in [4], 31 µM (inactive); in test [5] it was > 100 µM (inactive); in test [6] it was 4.97 µM (inactive). Moreover, the GI50 in test [7] was > 100 µM (inactive); in test [8] it was 52.6 µM (inactive); in [9] it was > 100 µM (inactive); in [10], 35 µM (inactive); in test [11] it was > 100 µM (inactive); in test [12], 15.5 µM (inactive). The GI50 is 35.2 µM (inactive) in test [13]; 41.6 µM (inactive) in [14]; 21.7 µM (inactive) in test [15]; 32.7 µM (inactive) in test [16]; 50.4 µM (inactive) in test [17]; 12.2 µM (inactive) in test [18]. Also, in [19], the GI50 was 39.4 µM (inactive).

Turning to `CO[C@@H](c1ccccc1)[C@H](O)[C@@](O)(c1ccccc1)P(=O)(OC)OC`, the GI50 in [1] is > 100 µM (inactive); in test [2], above 100 µM; in [3] it was > 100 µM (inactive); in [4] it was > 100 µM (inactive); in [5], > 100 µM (inactive); in test [6] it was 44.4 µM (inactive). Further, the GI50 in [7] was > 100 µM (inactive); in test [8], > 100 µM (inactive); in test [9] it was > 100 µM (inactive); in test [10], > 100 µM (inactive); in [11] it was > 100 µM (inactive); in test [12], 78.9 µM (inactive). Moreover, the GI50 in [13], in test [15], in [16], in test [17], in test [18] and in test [19] was > 100 µM (inactive) throughout.

For `O=C(/C=C\c1ccsc1)c1ccccc1`, the GI50 is 12 µM (inactive) in test [1]; 3.61 µM in test [2]; 7.21 µM (inactive) in test [3]; 12.2 µM (inactive) in test [4]; 12.3 µM (inactive) in [5]; 10.6 µM (inactive) in [6]. The GI50 in [7] was 16.1 µM (inactive); in test [8], 5.7 µM (inactive); in test [9], 8.05 µM (inactive); in test [10], 13.2 µM (inactive); in test [11], 15 µM (inactive); in test [12], 1.68 µM (inactive). Moreover, the GI50 in test [13] was 16.2 µM (inactive); in [14] it was 16.1 µM (inactive); in test [15] it was 15.8 µM (inactive); in [16], 10.1 µM (inactive); in [17] it was 16.7 µM (inactive); in [18] it was 0.182 µM (active). In test [19], the GI50 was 8.99 µM (inactive).

As to `O=c1[nH]cnc2c1ncn2C1SC(CO)C(O)C1O` (stereo unspecified), the GI50 in test [1] is > 100 µM (inactive); in [2], above 100 µM; in test [3] it was > 100 µM (inactive); in test [4], > 100 µM (inactive); in test [5], > 100 µM (inactive); in test [6], > 100 µM (inactive). The GI50 in test [7], in test [8], in [9], in [10], in test [11] and in test [12] was > 100 µM (inactive) each time. Also, the GI50 in [13], in [14], in test [15], in [16], in [17] and in [18] was > 100 µM (inactive) in each case. Further, the GI50 in test [19] is > 100 µM (inactive).

Regarding `O=C(/C=C/c1ccc(O)cc1)c1ccc2c(c1)OCO2`, the GI50 is 15.9 µM (inactive) in [1]; 26.1 µM in test [2]; 18 µM (inactive) in test [3]; 18.7 µM (inactive) in test [4]; 25.1 µM (inactive) in test [5]; 22.8 µM (inactive) in test [6]. Besides, the GI50 in test [7] is 27.4 µM (inactive); in test [8], 18.2 µM (inactive); in test [9], 21.9 µM (inactive); in [10] it was 17.1 µM (inactive); in test [12] it was 12.8 µM (inactive); in [13], 14.7 µM (inactive). For the same molecule, the GI50 in [14] was 18.7 µM (inactive); in test [15], 21.8 µM (inactive); in test [16], 12.4 µM (inactive); in test [17], 27 µM (inactive); in [18], 12.1 µM (inactive); in test [19], 15.2 µM (inactive).

On to `COC(=O)CCC(=O)c1ccc2c(c1)CC1(C2)Cc2ccc(C(=O)CCC(=O)OC)cc2C1`, for which the GI50 was > 100 µM (inactive) in test [1]; above 100 µM in [2]; 30.8 µM (inactive) in test [3]; > 100 µM (inactive) in [4]; 37.4 µM (inactive) in test [5]; > 100 µM (inactive) in test [6]. Also, the GI50 was > 100 µM (inactive) in test [7]; 59.7 µM (inactive) in [8]; 25.8 µM (inactive) in test [9]; 82.6 µM (inactive) in test [11]; 55.1 µM (inactive) in test [12]; 94.4 µM (inactive) in [13]. Moreover, the GI50 was 43.5 µM (inactive) in test [14]; 53.8 µM (inactive) in test [15]; < 0.01 µM (active) in [16]; 0.61 µM (active) in test [17]; 56.2 µM (inactive) in test [18]; 73.6 µM (inactive) in [19].

As for `COc1ccc(C2=Nc3c(nc(OC)[nH]c3=O)NC(c3ccccc3)C2)cc1` (stereo unspecified), the GI50 in [1] is 23.2 µM (inactive); in test [3], 27.6 µM (inactive); in test [4] it was 42.8 µM (inactive); in test [5], 24.8 µM (inactive); in test [6], 33.3 µM (inactive); in [7], 46.6 µM (inactive). In addition, the GI50 is 29.6 µM (inactive) in test [8]; 27.5 µM (inactive) in test [9]; 30.5 µM (inactive) in test [10]; 28.7 µM (inactive) in [12]; 24.6 µM (inactive) in [13]; 41.5 µM (inactive) in [14]. Further, the GI50 was 50 µM (inactive) in test [15]; 12.5 µM (inactive) in test [16]; 25.7 µM (inactive) in test [17]; 19.3 µM (inactive) in test [18]; 21.4 µM (inactive) in test [19].

`O=[As]O`: the GI50 in [1] is > 48.4 µM (inactive); in test [2] it was above 52.5 µM; in [3], > 57.3 µM (inactive); in [4] it was > 39.1 µM (inactive); in test [5], > 100 µM (inactive); in [6], > 100 µM (inactive). Further, the GI50 is > 100 µM (inactive) in test [7]; > 48.3 µM (inactive) in [8]; > 100 µM (inactive) in test [9]; > 67.5 µM (inactive) in test [10]; > 100 µM (inactive) in [11]; 22.8 µM (inactive) in test [12]. The GI50 is > 90.6 µM (inactive) in test [13]; > 100 µM (inactive) in test [14]; > 81.1 µM (inactive) in [15]; > 51.1 µM (inactive) in [16]; > 59.6 µM (inactive) in test [17]; 9.82 µM (inactive) in test [18]. Also, the GI50 in test [19] is > 43.8 µM (inactive).

`O=c1[nH]c(Nc2cccc(C(F)(F)F)c2)nc2[nH]cnc12`: the GI50 is > 100 µM (inactive) in test [1]; above 100 µM in [2]; > 100 µM (inactive) in test [3]; > 100 µM (inactive) in test [5]; > 100 µM (inactive) in [6]; > 100 µM (inactive) in test [7]. The GI50 was > 100 µM (inactive) in [9]; > 100 µM (inactive) in test [10]; > 100 µM (inactive) in test [11]; 69.7 µM (inactive) in [12]; 73.3 µM (inactive) in test [13]; > 100 µM (inactive) in test [14]. For the same molecule, the GI50 in test [15] was > 100 µM (inactive); in test [16], 71.1 µM (inactive); in [17], 88.3 µM (inactive); in test [18], > 100 µM (inactive); in test [19], > 100 µM (inactive).
